Results as given in ChEMBL document CHEMBL1201862, “PubChem BioAssay data set” (2004).
Activity calls are given as the source filed them.

How the values were obtained:
[1] = target: T1, High affinity choline transporter 1 (Homo sapiens, UniProt Q9GZV3); experiment: CHT inhibitors, dose response, cell-based, 5-point CRC, membrane potential dye (AID 504840); format: functional
T1 sequence (Q9GZV3 whole entry): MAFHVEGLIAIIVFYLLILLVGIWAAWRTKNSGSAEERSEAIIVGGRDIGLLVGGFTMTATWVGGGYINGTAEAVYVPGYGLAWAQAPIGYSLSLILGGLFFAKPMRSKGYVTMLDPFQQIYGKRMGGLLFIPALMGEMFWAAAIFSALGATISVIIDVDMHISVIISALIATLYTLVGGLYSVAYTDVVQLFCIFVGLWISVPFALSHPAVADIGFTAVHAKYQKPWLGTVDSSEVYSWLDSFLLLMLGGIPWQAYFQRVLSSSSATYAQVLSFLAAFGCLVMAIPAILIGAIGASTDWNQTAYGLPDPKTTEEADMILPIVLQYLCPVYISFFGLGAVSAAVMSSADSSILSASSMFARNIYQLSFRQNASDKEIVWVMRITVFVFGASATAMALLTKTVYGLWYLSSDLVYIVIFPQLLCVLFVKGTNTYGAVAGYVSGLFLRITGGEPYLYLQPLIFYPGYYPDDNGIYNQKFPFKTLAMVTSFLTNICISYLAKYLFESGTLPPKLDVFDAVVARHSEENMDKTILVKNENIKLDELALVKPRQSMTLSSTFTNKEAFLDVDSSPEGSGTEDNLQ

Protein skinhead-1 = target: T2, Protein skinhead-1 (Caenorhabditis elegans, UniProt P34707); format: functional
T2 sequence (P34707 whole entry): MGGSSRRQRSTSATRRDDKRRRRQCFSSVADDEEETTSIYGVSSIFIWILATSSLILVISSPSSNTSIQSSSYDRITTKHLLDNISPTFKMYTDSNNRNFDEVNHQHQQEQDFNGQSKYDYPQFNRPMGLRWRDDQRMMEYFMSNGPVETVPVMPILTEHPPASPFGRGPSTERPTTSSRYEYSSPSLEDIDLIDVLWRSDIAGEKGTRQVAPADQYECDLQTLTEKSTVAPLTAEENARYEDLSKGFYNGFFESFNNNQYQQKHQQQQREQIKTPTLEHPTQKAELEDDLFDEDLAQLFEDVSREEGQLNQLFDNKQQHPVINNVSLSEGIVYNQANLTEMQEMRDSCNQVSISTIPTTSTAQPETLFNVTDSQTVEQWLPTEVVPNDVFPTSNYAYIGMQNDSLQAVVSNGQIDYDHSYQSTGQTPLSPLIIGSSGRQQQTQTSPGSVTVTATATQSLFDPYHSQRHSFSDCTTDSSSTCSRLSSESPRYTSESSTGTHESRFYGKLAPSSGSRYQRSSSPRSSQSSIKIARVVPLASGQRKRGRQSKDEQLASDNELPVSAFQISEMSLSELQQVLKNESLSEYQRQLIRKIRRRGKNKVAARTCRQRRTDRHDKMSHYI

Fatty acid synthase [2] = target: T3, Fatty acid synthase (Homo sapiens, UniProt P49327); experiment: FAS thioesterase domain inhibitors, dose response, biochemical, endpoint fluorescence intensity, uHTS hits (AID 624327); format: functional;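 also: fluorescence from hydrolysis of an O-methyl fluorescein acyl ester substrate by the enzyme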
T3 sequence (P49327 whole entry, the tested form may be a part): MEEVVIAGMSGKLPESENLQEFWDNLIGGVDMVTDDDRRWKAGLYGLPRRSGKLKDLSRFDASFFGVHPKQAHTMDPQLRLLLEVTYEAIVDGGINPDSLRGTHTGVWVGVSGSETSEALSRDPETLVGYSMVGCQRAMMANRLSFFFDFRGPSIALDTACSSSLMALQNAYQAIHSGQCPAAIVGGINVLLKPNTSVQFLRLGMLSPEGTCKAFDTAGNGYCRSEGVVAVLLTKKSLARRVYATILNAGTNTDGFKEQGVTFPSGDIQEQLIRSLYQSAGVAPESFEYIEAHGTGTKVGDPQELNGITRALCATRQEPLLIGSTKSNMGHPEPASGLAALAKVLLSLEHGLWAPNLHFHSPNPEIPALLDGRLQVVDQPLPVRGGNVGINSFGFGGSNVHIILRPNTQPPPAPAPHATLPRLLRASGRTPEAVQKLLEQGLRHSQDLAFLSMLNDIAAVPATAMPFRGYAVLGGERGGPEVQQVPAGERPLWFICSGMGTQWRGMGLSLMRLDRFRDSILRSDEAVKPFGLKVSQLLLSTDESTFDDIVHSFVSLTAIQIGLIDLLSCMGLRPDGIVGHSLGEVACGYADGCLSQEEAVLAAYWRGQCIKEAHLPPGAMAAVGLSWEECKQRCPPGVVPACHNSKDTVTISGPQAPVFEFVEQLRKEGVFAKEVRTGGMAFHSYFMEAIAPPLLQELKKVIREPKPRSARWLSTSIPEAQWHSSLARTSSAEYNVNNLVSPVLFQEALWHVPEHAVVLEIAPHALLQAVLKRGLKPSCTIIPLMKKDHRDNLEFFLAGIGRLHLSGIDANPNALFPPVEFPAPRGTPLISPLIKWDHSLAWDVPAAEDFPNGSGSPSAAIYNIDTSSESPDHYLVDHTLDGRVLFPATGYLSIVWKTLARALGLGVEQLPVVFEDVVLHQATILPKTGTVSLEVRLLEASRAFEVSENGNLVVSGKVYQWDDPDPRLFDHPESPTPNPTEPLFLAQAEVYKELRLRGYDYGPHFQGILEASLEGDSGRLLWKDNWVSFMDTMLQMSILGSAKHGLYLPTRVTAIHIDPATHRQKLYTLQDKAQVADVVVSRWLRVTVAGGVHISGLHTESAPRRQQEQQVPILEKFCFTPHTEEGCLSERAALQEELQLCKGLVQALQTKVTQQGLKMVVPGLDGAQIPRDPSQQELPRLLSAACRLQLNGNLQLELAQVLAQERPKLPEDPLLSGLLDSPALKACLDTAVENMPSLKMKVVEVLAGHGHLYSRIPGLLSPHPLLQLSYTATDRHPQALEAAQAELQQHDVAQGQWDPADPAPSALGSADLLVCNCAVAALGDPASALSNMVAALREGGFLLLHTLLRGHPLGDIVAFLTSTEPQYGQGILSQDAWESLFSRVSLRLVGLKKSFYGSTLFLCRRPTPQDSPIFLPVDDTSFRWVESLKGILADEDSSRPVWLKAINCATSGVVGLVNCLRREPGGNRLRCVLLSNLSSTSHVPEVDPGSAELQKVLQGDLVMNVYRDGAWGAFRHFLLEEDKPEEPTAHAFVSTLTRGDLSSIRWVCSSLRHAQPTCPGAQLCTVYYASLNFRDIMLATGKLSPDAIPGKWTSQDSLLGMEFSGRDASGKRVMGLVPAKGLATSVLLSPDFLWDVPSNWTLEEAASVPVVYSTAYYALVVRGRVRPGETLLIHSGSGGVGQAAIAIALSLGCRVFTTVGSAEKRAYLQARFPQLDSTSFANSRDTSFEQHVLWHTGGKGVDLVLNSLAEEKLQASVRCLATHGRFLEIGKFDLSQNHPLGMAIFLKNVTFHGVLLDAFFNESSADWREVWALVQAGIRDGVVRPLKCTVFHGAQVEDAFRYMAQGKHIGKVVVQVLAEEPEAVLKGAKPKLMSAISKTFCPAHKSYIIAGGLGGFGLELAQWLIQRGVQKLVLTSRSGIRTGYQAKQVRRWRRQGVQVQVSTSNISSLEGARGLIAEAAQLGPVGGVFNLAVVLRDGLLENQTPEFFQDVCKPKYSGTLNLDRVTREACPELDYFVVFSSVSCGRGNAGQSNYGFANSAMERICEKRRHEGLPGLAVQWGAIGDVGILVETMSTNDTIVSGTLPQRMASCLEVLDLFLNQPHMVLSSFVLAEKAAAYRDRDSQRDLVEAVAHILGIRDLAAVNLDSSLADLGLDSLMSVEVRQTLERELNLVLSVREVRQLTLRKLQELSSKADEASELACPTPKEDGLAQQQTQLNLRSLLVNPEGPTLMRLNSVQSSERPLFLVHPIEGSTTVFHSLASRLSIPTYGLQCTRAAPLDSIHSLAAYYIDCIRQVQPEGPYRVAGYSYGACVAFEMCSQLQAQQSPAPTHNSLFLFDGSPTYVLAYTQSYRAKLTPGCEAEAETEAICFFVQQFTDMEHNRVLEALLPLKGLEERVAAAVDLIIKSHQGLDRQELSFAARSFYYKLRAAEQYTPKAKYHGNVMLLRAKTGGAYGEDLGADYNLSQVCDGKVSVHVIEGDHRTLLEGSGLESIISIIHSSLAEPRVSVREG

Fatty acid synthase [3] = target: T3, Fatty acid synthase; experiment: FAS thioesterase domain inhibitors, dose response, biochemical, kinetic fluorescence intensity (AID 624326); format: functional;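 also: rate of fluorescence rise from hydrolysis of a fluorogenic O-methyl fluorescein ester substrate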
Cytochrome P450 2D6 = Cytochrome P450 2D6 (Homo sapiens, UniProt P10635);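 also: CYP2D6 member of a cytochrome P450 panel assay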
Chain of Cytochrome P450 2D6 (P10635 whole entry): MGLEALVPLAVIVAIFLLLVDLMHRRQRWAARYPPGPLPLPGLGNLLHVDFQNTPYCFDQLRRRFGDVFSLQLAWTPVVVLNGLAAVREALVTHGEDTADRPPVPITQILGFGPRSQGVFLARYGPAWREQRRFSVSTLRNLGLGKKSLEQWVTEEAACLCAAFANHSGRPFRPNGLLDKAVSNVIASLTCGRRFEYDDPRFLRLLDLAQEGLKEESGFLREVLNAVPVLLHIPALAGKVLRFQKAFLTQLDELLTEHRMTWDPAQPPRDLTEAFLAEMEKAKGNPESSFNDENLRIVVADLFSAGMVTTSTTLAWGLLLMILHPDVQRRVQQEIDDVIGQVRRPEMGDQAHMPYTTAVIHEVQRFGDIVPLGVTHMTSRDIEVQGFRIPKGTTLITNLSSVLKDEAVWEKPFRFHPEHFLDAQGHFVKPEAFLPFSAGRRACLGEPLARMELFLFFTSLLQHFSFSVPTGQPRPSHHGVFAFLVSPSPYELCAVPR

Large T antigen = Large T antigen (Simian virus 40, UniProt P03070); format: functional, Betapolyomavirus macacae;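 also: Confirmatory-stage PubChem screen for compounds that inhibit SV40 T antigen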
Chain of Large T antigen (P03070 whole entry): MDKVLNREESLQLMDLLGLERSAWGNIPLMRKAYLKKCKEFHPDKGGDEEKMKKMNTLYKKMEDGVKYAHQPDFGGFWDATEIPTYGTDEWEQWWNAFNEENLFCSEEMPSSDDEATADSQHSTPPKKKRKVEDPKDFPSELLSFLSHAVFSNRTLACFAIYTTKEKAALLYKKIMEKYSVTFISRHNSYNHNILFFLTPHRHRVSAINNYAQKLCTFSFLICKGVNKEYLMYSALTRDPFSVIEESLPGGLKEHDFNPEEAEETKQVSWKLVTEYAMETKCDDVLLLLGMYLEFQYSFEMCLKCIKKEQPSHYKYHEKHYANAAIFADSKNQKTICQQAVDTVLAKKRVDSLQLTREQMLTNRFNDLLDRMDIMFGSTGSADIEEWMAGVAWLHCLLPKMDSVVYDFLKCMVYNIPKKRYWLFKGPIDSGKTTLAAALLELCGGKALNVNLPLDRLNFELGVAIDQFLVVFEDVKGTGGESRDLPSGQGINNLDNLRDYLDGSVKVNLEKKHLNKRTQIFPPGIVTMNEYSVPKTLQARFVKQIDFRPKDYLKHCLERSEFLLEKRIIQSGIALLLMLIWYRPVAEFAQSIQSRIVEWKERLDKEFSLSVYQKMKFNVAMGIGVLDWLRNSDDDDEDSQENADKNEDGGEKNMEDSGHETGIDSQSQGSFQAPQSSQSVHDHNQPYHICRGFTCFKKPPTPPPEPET

Coagulation factor XII = target: T4, Coagulation factor XII (Homo sapiens, UniProt P00748); format: functional;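 also: activated factor XIIa alpha cleaving a fluorogenic AMC peptide substrate; inhibitor potency from loss of enzyme activity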
T4 sequence (P00748 whole entry): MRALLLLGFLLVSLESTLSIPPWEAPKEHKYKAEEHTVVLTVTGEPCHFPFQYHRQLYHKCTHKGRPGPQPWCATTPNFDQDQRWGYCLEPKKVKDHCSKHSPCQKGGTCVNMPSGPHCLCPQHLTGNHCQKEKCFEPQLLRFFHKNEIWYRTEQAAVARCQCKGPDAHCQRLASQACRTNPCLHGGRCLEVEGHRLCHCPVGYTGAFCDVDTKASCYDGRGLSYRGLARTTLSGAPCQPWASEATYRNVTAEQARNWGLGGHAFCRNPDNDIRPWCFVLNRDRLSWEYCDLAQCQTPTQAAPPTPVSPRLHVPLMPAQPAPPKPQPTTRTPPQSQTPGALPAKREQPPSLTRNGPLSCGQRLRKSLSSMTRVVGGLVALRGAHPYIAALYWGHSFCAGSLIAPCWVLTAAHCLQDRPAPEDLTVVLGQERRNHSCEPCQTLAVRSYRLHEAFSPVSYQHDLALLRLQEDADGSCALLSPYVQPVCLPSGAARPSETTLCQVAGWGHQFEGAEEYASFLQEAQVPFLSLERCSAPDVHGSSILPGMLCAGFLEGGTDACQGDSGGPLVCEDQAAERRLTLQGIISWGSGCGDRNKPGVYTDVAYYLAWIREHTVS

[4] = target: T5, Corticotropin-releasing factor receptor 2/Corticotropin-releasing factor-binding protein (Homo sapiens, UniProt P24387+Q13324); experiment: activators of CRF receptor 2 with binding protein – uHTS hits, confirmation (AID 602473); format: functional; conditions: read-out: EC50_Mean
T5 sequence (Q13324 whole entry): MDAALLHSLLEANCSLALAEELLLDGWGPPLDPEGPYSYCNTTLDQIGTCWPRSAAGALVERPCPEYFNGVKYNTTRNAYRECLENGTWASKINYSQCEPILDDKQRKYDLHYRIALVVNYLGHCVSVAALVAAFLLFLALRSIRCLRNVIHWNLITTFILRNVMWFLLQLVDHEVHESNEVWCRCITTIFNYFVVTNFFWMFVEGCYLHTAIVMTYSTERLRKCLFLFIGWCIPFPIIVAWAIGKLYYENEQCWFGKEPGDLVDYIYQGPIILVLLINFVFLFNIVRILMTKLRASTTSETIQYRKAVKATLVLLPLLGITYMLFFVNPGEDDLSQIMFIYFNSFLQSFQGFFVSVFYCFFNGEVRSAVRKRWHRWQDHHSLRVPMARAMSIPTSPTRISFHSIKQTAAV
T5 sequence (P24387 whole entry): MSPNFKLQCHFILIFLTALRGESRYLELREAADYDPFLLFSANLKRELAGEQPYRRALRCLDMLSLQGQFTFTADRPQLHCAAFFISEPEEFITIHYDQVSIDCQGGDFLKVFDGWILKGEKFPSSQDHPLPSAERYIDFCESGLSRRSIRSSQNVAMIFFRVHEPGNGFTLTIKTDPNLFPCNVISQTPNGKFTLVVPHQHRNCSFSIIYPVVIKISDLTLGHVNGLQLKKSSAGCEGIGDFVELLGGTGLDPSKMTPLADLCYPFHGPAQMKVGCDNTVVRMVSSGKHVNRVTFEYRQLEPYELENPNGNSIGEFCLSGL

[5] = target: Eukaryotic translation initiation factor 4E (Mus musculus, UniProt P63073); experiment: eIF4E–eIF4G protein interaction inhibitors, dose response, biochemical, TR-FRET (AID 855); format: functional;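 also: potency for disrupting eIF4E binding to eIF4GI seen as loss of FRET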
Chain of Eukaryotic translation initiation factor 4E (P63073 whole entry): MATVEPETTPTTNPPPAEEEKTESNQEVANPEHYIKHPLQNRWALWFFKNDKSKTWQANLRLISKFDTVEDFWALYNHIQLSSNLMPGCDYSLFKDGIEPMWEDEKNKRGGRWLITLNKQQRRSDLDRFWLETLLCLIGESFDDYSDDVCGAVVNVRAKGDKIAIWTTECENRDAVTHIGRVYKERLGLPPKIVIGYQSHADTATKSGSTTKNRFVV

[6] = target: T5, Corticotropin-releasing factor receptor 2/Corticotropin-releasing factor-binding protein; experiment: Dose Response confirmation of uHTS hits for small molecule antagonists of the CRF-binding protein and CRF-R2 receptor complex.; format: functional; conditions: read-out: IC50_Mean
Leucine aminopeptidase = target: T6, Leucine aminopeptidase (Plasmodium falciparum 3D7, UniProt Q8IL11); experiment: P. falciparum M17LAP inhibitors, primary screen, biochemical, fluorogenic H-Leu-NHMec substrate, 1536-well (AID 1619); format: functional
T6 sequence (Q8IL11 whole entry): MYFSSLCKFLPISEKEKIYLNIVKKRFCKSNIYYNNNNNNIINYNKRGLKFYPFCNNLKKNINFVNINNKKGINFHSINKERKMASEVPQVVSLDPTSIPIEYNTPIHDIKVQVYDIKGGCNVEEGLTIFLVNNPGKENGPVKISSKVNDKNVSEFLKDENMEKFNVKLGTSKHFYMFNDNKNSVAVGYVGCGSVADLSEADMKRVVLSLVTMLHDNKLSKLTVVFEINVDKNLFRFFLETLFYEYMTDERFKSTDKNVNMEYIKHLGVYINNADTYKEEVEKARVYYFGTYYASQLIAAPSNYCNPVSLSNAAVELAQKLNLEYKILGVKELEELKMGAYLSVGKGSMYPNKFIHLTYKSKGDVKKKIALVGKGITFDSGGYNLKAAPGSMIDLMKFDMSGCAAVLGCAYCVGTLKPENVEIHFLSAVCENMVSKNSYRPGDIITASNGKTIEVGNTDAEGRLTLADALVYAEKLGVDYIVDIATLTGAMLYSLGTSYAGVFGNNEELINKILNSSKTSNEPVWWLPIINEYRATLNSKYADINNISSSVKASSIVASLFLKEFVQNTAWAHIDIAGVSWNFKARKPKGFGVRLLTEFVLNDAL

[7] = target: Induced myeloid leukemia cell differentiation protein Mcl-1 (Homo sapiens, UniProt Q07820); format: functional
Chain of Induced myeloid leukemia cell differentiation protein Mcl-1 (Q07820 whole entry): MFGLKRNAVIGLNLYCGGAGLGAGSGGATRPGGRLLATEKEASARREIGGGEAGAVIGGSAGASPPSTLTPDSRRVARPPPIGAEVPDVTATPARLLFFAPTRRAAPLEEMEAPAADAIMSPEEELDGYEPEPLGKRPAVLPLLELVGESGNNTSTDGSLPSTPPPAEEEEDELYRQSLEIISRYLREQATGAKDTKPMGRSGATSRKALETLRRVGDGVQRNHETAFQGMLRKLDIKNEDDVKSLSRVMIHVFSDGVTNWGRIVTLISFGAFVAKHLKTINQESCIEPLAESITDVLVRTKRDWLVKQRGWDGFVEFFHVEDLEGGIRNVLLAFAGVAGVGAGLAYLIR

[8] = target: T7, Rac GTPase-activating protein 1 (Homo sapiens, UniProt Q9H0H5); experiment: MgcRacGAP GTPase-activating activity inhibitors, confirmation, biochemical, ADP Hunter fluorescence, primary and confirmatory (AID 624330); format: functional
T7 sequence (Q9H0H5 whole entry): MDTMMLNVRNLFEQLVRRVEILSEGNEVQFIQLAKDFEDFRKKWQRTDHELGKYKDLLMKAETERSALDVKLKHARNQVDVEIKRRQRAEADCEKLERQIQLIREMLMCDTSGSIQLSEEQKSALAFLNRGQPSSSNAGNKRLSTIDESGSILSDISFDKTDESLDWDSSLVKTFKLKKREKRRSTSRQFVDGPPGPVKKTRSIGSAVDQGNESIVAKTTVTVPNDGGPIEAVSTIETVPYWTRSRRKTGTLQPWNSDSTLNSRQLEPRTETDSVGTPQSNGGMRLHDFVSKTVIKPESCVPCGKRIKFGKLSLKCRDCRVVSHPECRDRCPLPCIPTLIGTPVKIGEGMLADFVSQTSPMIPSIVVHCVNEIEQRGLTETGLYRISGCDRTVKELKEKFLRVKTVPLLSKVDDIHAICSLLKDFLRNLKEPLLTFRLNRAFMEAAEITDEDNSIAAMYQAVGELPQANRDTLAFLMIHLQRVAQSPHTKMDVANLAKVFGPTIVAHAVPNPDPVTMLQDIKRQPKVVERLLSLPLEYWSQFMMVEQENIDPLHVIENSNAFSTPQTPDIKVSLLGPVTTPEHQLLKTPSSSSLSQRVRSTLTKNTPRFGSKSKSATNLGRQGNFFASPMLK

CCN(CC)CCCCCCCCOC(=O)c1cc(OC)c(OC)c(OC)c1
IC50 [1]: 15.1 µM (active)

O=[N+]([O-])c1cccc(S(=O)(=O)Nc2ccc(Cc3ccncc3)cc2)c1
IC50 [1]: 10.5 µM (active)

O=C(NCCc1ccccc1)c1ccc2c(=O)[nH]c3c(C(=O)NCC4CCCO4)sc(=S)n3c2c1 (centres undefined)
IC50 [1]: 16.6 µM (active)

O=C(c1cccc(Cl)c1)N(Cc1cccs1)C1CCS(=O)(=O)C1 (centres undefined)
IC50 (Protein skinhead-1): > 100 µM (inactive)

CCCCCOC(=O)c1ccc(N2C(=O)C3C4C=CC(C4)C3C2=O)cc1 (centres undefined)
IC50 (Fatty acid synthase [2]): 2.93 µM (active) | IC50 (Fatty acid synthase [3]): 2.43 µM (active)

O=C(Nc1cc([N+](=O)[O-])ccc1Cl)C(Sc1ccccc1)c1ccccc1 (centres undefined)
IC50 (Fatty acid synthase [2]): 4.75 µM (active) | IC50 (Fatty acid synthase [3]): 2.86 µM (active)

Nc1ccc(-c2sc(N)nc2-c2ccccc2)cc1
AC50 (Cytochrome P450 2D6): 17.8 µM (inconclusive) | IC50 (Large T antigen): 14.5 µM (active)

C=CCOc1c(CNc2ccc3[nH]c(O)nc3c2)cccc1OC
IC50 (Large T antigen): 96.9 µM (active)

CSC1=NSC2=NC(=O)/C(=C\c3c(C)[nH]c4ccc(C)cc34)C(=N)N12
IC50 (Coagulation factor XII): > 50 µM (inactive)

CCOc1ccc2nc(O)c(C(c3nnnn3C3CCCCC3)N3CCN(C)CC3)cc2c1 (centres undefined)
IC50 (Coagulation factor XII): > 50 µM (inactive)

CC(C)CN1CCC(Oc2cccc(C(=O)NCCc3ccccc3)c2)CC1
IC50 [1]: 10.7 µM (active)

Brc1cccc(C2CC(c3ccccc3)n3nnnc3N2)c1 (centres undefined)
EC50 [4]: > 53 µM (inactive) | IC50 [5]: > 64 µM (inactive) | IC50 [6]: > 47.1 µM (inactive)

CCOc1ccccc1NC(=O)C(CC(C)C)NC(=O)C1CCC(C)CC1 (centres undefined)
IC50 (Protein skinhead-1): > 100 µM (inactive)

O=C(NC(=S)Nc1ccc(O)cc1)c1ccccc1Cl
IC50 (Large T antigen): 6.97 µM (active)

COC(=O)c1c(NC(=O)c2c(-c3ccccc3Cl)noc2C)sc2c1CCC2
IC50 (Coagulation factor XII): 4.24 µM (active)

CCOC(=O)c1c(NC(=O)c2ccc(Br)o2)sc2c1CCCC2
IC50 (Coagulation factor XII): > 50 µM (inactive)

O=C(NCc1ccco1)/C(=C\c1cccc([N+](=O)[O-])c1)NC(=O)c1ccco1
IC50 (Fatty acid synthase [2]): 9.41 µM (active) | IC50 (Fatty acid synthase [3]): 8.51 µM (active)

O=C(NCCc1ccccc1)c1cc(=O)c2ccccc2o1
IC50 (Coagulation factor XII): > 50 µM (inactive)

FC(F)C(F)(F)C(F)(F)C(F)(F)c1cc(-c2ccccc2)n[nH]1
IC50 (Coagulation factor XII): > 50 µM (inactive)

OC1=C2C(=Nc3nc(S)nc(O)c3C2c2ccc(Br)cc2)CCC1 (centres undefined)
IC50 (Leucine aminopeptidase): 16.7 µM (active) | IC50 [5]: > 64 µM (inactive) | IC50 (Large T antigen): 48.1 µM (active)

O=C(/C=C/c1cccc([N+](=O)[O-])c1)NCCSc1ccccc1
IC50 (Fatty acid synthase [2]): 4.58 µM (active) | IC50 (Fatty acid synthase [3]): 5.62 µM (active)

O=C(OCc1ccc([N+](=O)[O-])cc1)C1CCN(S(=O)(=O)c2ccccc2)CC1
IC50 (Fatty acid synthase [2]): 9.66 µM (active) | IC50 (Fatty acid synthase [3]): 9.2 µM (active)

CN(CC(=O)Nc1ccc(Cl)c(C(F)(F)F)c1)C(=O)C1CC(=O)N(c2ccc3c(c2)OCCO3)C1 (centres undefined)
IC50 (Fatty acid synthase [2]): 10.4 µM (active) | IC50 (Fatty acid synthase [3]): 11.3 µM (active)

Cn1c(SCC(=O)N/N=C/c2ccc(O)c(O)c2)nc2ccccc21
IC50 (Large T antigen): 3.29 µM (active)

CC(=O)Nc1sc(N/N=C\c2ccco2)nc1-c1cccs1
IC50 [7]: 5.23 µM (active) | IC50 (Large T antigen): 50.8 µM (active)

COc1cc(/C=N/n2cnnc2)ccc1OC(=O)c1cccnc1
IC50 [8]: 32 µM (active) | IC50 (Coagulation factor XII): > 50 µM (inactive)
